{"source": "paper PMC6045374", "about": "(ACS Omega, 2018)", "key": {"[1]": {"target": "T1, homoserine kinase (CglThrB-A20G) (Corynebacterium glutamicum, UniProt P07128, A20G)", "T1 sequence (P07128 1-309 A20G)": "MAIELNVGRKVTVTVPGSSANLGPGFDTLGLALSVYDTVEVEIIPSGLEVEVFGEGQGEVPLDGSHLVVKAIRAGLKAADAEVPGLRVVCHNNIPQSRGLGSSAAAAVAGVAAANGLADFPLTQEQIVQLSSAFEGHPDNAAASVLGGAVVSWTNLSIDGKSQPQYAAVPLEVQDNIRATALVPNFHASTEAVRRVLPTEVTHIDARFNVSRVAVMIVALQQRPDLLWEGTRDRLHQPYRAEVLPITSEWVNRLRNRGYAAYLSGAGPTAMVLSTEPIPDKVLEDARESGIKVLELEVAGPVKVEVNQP", "assay": "steady-state enzyme kinetics, ADP colorimetric assay", "assay_type": "biochemical"}, "[2]": {"target": "T2, homoserine kinase (CglThrB-WT) (Corynebacterium glutamicum, UniProt P07128)", "T2 sequence (P07128 2-309)": "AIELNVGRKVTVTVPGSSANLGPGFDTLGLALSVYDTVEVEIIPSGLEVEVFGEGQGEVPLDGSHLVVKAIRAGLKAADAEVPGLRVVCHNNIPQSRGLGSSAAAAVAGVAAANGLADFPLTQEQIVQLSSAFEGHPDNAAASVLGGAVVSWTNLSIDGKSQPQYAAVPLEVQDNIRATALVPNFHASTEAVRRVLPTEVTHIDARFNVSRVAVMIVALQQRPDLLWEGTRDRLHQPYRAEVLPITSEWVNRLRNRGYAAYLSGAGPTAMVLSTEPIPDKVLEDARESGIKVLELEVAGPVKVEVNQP", "assay": "steady-state enzyme kinetics, ADP colorimetric assay", "assay_type": "biochemical"}}}
{"smiles": "C[C@@H](O)[C@H](N)C(=O)O", "note": "[L-threonine]", "values": [{"measurement": "Ki", "setting": "[1]", "value": 25.2, "unit": "mM"}, {"measurement": "Ki", "setting": "[2]", "value": 4.73, "unit": "mM"}]}
